Laboratory results taken from patent publication US20250288573A1 (H. LEE MOFFITT CANCER CENTER AND RESEARCH INSTITUTE, INC., priority 2018, published 2025).

Target: T1, CRBN (Homo sapiens, UniProt Q96SW2)
T1 construct: endogenous in cells; host or cells: primary human T cells / CD8+ T cells from peripheral blood
Assay: Western blot for expression of CRBN relative to vinculin in human T cells (CRBN degradation)
Format: cell-based
Details: read-out: Relative Density of CRBN (% of DMSO); for remaining activity at 0.01 µM: 24 h, 10nM, human T cells, 24 hours
Source text: Bortez=bortezomib; MG132=proteasome inhibitor; MLN4924=NEDD8 inhibitor.
This assay is a standard Western blot assay for expression of CRBN relative to vinculin.
[…] 0.1 percent DMSO was used as a vehicle control.

T1 sequence (Q96SW2 whole entry): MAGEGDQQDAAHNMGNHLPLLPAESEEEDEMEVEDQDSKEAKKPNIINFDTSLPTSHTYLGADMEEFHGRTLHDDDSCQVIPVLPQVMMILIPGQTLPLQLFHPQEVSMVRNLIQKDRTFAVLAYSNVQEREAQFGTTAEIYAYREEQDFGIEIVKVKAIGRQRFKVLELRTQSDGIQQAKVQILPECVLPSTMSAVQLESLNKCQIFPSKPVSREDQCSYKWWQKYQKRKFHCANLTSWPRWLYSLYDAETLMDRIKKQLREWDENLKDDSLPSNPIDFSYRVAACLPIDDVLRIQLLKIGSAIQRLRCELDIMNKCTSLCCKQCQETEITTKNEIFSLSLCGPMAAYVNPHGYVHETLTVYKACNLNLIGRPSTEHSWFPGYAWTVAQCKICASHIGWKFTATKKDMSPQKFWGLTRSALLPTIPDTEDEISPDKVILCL

SMILES	remaining activity at 10 µM	remaining activity at 0.01 µM
O=C1CC[C@H](N2Cc3c(CCCOCCOCCCc4cccc5c4CN([C@H]4CCC(=O)NC4=O)C5=O)cccc3C2=O)C(=O)N1 [XS01-011, (3S,3'S)-3,3′-(((Ethane-1,2-diylbisbis(oxy))bisbis(propane-3,1-diyl))bisbis(1-oxoisoindoline-4,2-diyl))bisbis(piperidine-2,6-dione)]	38.1%	3.42%
Cc1nc2cccc(NCc3ccc(CNc4cccc5nc(C)n(C6CCC(=O)NC6=O)c(=O)c45)cc3)c2c(=O)n1C1CCC(=O)NC1=O (centres unmarked) [MA10-112]	21.4%	5.13%
Cc1nc2cccc(NC(=O)Cn3cc(CCC(=O)Nc4cccc5c4CN(C4CCC(=O)NC4=O)C5=O)nn3)c2c(=O)n1C1CCC(=O)NC1=O (centres unmarked) [XS01-127, N-(2-(2,6-Dioxopiperidin-3-yl)-1-oxoisoindolin-4-yl)-3-(1-(2-((3-(2,6-dioxopiperidin-3-yl)-2-methyl-4-oxo-3,4-dihydroquinazolin-5-yl)amino)-2-oxoethyl)-1H-1,2,3-triazol-4-yl)propanamide]	175%	228%
CN1C(=O)CCC(N2Cc3c(CCCOCCOCCCc4cccc5c4CN(C4CCC(=O)N(C)C4=O)C5=O)cccc3C2=O)C1=O (centres unmarked) [SM3-104, 3,3′-(((Ethane-1,2-diylbis(oxy))bis(propane-3,1-diyl))bis(1-oxoisoindoline-4,2-diyl))bis(1-methylpiperidine-2,6-dione)]	–	92.1%
Cc1nc2cccc(NCc3cccc(CNc4cccc5nc(C)n(C6CCC(=O)NC6=O)c(=O)c45)n3)c2c(=O)n1C1CCC(=O)NC1=O (centres unmarked) [MA10-126, 3,3′-(((Pyridine-2,6-diylbis(methylene))bis(azanediyl))bis(2-methyl-4-oxoquinazoline-5,3(4H)-diyl))bis(piperidine-2,6-dione)]	61.1%	54.2%
O=C1CCC(N2Cc3c(NC(=O)CCc4cn(CC(=O)Nc5cccc6c5CN(C5CCC(=O)NC5=O)C6=O)nn4)cccc3C2=O)C(=O)N1 (centres unmarked) [XS01-113, N-(2-(2,6-dioxopiperidin-3-yl)-1-oxoisoindolin-4-yl)-3-(1-(2-((2-(2,6-dioxopiperidin-3-yl)-1-oxoisoindolin-4-yl)amino)-2-oxoethyl)-1H-1,2,3-triazol-4-yl)propanamide]	106%	225%

Now from value to molecule:

remaining activity at 10 µM	remaining activity at 0.01 µM	SMILES
74.3%	139%	Cc1nc2cccc(NC(=O)CCCCCCC(=O)Nc3cccc4nc(C)n(C5CCC(=O)NC5=O)c(=O)c34)c2c(=O)n1C1CCC(=O)NC1=O (centres unmarked) [MA10-077, N1,N8-bis(3-(2,6-dioxopiperidin-3-yl)-2-methyl-4-oxo-3,4-dihydroquinazolin-5-yl)octanediamide]
58.1%	135%	Cc1nc2cccc(NC(=O)CCCCC(=O)Nc3cccc4nc(C)n(C5CCC(=O)NC5=O)c(=O)c34)c2c(=O)n1C1CCC(=O)NC1=O (centres unmarked) [MA10-088, N1,N6-bis(3-(2,6-Dioxopiperidin-3-yl)-2-methyl-4-oxo-3,4-dihydroquinazolin-5-yl)adipamide]
189%	–	O=C1CCC(N2Cc3ccc(NC(=O)CCCCC(=O)Nc4ccc5c(c4)C(=O)N(C4CCC(=O)NC4=O)C5)cc3C2=O)C(=O)N1 (centres unmarked) [EC2-066]
132%	213%	O=C1CCC(N2Cc3c(NC(=O)CCCc4cn(CC(=O)Nc5cccc6c5CN(C5CCC(=O)NC5=O)C6=O)nn4)cccc3C2=O)C(=O)N1 (centres unmarked) [XS01-109, N-(2-(2,6-Dioxopiperidin-3-yl)-1-oxoisoindolin-4-yl)-4-(1-(2-((2-(2,6-dioxopiperidin-3-yl)-1-oxoisoindolin-4-yl)amino)-2-oxoethyl)-1H-1,2,3-triazol-4-yl)butanamide]
104%	84.6%	O=C1CCC(NC(=O)CCCC(=O)NC2CCC(=O)NC2=O)C(=O)N1 (centres unmarked) [XS01-095, N^1,N^5-Bis(2,6-dioxopiperidin-3-yl)glutaramide]
